Patent US6166030A, “Compounds” (priority 1997, dated 2000)

Tested on: endothelial nitric oxide synthase
Experiment: Screen for endothelial nitric oxide synthase inhibiting activity
Format: biochemical, human
Conditions: reference standard at 1 μM; endothelial enzyme from HUVECs
From the text: Nitric oxide synthase converts ^3 H-L-arginine into ^3 H-L-citrulline which can be separated by cation exchange chromatography and quantified by scintillation counting.
The enzyme is isolated from human umbilical vein endothelial cells (HUVECs) by a procedure based on that of Pollock et al in Proc. Natl. Acad. Sci., 1991, 88, 10480-10484. HUVECs were purchased from Clonetics Corp (San Diego, Calif., USA) and cultured to confluency. Cells can be maintained to passage 35-40 without significant loss of yield of nitric oxide synthase. When cells reach confluency, they are resuspended in Dulbecco's phosphate buffered saline, centrifuged at 800 rpm for 10 minutes, and the cell pellet is then homogenised in ice-cold 50 mM Tris-HCl, 1 mM EDTA, 10% glycerol, 1 mM phenylmethylsulphonylfluoride, 2 μM leupeptin at pH 4.2. Following centrifugation at 34,000 rpm for 60 minutes, the pellet is solubilised in the homogenisation buffer which also contains 20 mM CHAPS. After a 30 minute incubation on ice, the suspension is centrifuged at 34,000 rpm for 30 minutes. The resulting supernatant is stored at -80° C. until use. […]
Labelled L-citrulline is separated from labelled L-arginine by chromatography over a Dowex AG-50W-X8 200-400 mesh column. […] The L-citrulline is then quantified by scintillation counting. […]

N=C(NCCC[C@H](N)C(=O)O)N[N+](=O)[O-] [N-nitro-L-arginine]
inhibition of nitric oxide synthetase: 70-90%
